11 compounds from ChEMBL document CHEMBL4831522, “Structure-Based Optimization of Quinazolines as Cruzain and TbrCATL Inhibitors” (J Med Chem, 2021) can be followed below.

The structures appear in SMILES notation.

Rhodesain (Trypanosoma brucei rhodesiense), sequence (Q95PM0 1-450): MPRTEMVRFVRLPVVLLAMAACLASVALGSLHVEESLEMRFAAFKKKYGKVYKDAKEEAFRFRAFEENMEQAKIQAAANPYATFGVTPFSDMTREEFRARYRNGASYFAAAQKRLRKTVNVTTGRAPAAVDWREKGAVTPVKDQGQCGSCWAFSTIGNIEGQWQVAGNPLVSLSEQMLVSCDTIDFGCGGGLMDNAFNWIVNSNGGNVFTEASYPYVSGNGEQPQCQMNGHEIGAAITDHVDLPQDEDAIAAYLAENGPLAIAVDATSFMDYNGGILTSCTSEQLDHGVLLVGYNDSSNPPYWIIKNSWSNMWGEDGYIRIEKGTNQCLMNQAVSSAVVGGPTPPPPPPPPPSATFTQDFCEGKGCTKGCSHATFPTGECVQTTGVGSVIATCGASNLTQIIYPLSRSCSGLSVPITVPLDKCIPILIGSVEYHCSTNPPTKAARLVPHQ
Rhodesain, sequence (Q95PM0 whole entry): as the sequence (Q95PM0 1-450) above

In one data set the target is Cruzipain (Trypanosoma cruzi, UniProt P25779). The experiment in a line: Inhibition of recombinant Trypanosoma cruzi cruzain using Z-FR-AMC as substrate by fluorometry.
Cruzipain, sequence (P25779 whole entry): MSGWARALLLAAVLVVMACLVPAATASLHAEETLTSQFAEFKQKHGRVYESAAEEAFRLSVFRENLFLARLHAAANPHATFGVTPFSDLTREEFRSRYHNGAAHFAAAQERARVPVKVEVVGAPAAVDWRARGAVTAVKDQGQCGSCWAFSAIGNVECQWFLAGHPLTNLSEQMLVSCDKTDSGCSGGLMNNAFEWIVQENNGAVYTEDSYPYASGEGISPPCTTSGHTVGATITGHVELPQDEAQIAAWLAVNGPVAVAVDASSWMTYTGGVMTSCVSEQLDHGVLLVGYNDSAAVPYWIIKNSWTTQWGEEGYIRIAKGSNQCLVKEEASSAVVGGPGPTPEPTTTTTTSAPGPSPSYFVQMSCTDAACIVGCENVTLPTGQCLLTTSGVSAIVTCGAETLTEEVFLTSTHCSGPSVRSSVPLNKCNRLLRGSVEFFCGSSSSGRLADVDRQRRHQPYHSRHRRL
Conditions: not given
A word on the IC50: it is the midpoint of a concentration-inhibition curve. With `Clc1ccc(Nc2nc(NCc3ccccc3)c3ccccc3n2)cc1`, the IC50 was determined as 2.4 µM.

The next data set deals with Cruzipain (Trypanosoma cruzi) (UniProt P25779). The data set is described as follows: Inhibition of recombinant Trypanosoma cruzi cruzain using Z-FR-AMC as substrate and compound-enzyme complex preincubated for 5 mins in presence of 0.01% Triton-X100 by fluorometry relative to control.
Cruzipain (Trypanosoma cruzi), sequence (P25779 123-467 limits assumed): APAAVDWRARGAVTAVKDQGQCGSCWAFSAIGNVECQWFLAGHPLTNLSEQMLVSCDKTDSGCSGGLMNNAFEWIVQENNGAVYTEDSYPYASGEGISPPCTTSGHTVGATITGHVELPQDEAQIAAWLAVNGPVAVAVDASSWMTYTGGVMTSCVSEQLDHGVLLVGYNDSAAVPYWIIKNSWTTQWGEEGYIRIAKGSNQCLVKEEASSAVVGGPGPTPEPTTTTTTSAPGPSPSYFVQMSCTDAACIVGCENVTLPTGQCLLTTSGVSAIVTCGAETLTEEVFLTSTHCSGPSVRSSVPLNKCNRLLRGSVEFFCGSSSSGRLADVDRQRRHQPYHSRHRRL
Conditions: not given
As usually defined, the inhibition is the drop in the measured response relative to a control, in per cent. In the case of `O=C(Nc1ccccc1)c1ccc(Nc2nc(NCc3ccccc3)c3ccccc3n2)cc1`, the inhibition turned out to be 54%.
`Clc1ccc(Nc2nc(NCc3ccccc3)c3ccccc3n2)cc1`: the inhibition came out at 48%.

For a further data set, the system named is Trypanosoma brucei brucei. The data set is described as follows: Antitrypanosomal activity against Trypanosoma brucei brucei Lister 427 bloodstream forms measured after 72 hrs by SYBR green dye based assay. It counts as functional, organism-based. The following applies: Lister 427, 72 h.
The term EC50 denotes the concentration needed to bring the measured effect to its halfway point. `O=C(Nc1ccccc1)c1ccc(Nc2nc(NCCN3CCOCC3)c3ccccc3n2)cc1` gave an EC50 of 2.7 µM.
Still for that read-out and setting: the figure for `Cn1cnc2c(NCc3ccccc3)nc(Nc3ccccc3)nc21` is 23.8 µM; for `N=C(N)c1ccc(OCCCCCOc2ccc(C(=N)N)cc2)cc1` [PENTAMIDINE] it is 0.026 µM; for `O=C(Nc1ccccc1)c1ccc(Nc2nc(NCc3ccccc3)c3ccccc3n2)cc1` it is more than 50 µM.
With `Fc1cccc(Nc2nc(Nc3ccccc3)nc3ccccc23)c1`, the EC50 came out at 9 µM.
Compound `c1ccc(CNc2nc(Nc3ccccn3)nc3ccccc23)cc1` displayed an EC50 of more than 50 µM.
As for `OCCCNc1nc(NCCN2CCOCC2)c2ccccc2n1`, the EC50 was more than 50 µM.
Take `Cn1cnc2c(NCc3ccccc3)nc(Nc3ccc(Cl)cc3)nc21`: it took 18.4 µM to reach a half-maximal effect (EC50).
Compound `c1ccc(CNc2ccnc(Nc3ccccc3)n2)cc1` gave an EC50 of more than 50 µM.
On to `Clc1ccc(Nc2nc(NCc3ccccc3)c3ccccc3n2)cc1`, for which the response was half-maximal at 93 µM (EC50).

The next data set has as its target Rhodesain (Trypanosoma brucei rhodesiense, UniProt Q95PM0). The experiment in a line: Inhibition of recombinant Trypanosoma brucei rhodesiense MVAT4 rhodesain expressed in Pichia pastoris using Z-FR-AMC as substrate by fluorometry.
Conditions: not given
Consider `Clc1ccc(Nc2nc(NCc3ccccc3)c3ccccc3n2)cc1`, for which the IC50 stood at 33 µM.

The test system of the next data set is Trypanosoma cruzi. The experiment in a line: Trypanocidal activity against amastigotes form of Trypanosoma cruzi CA-I/72 infected in mouse C2C12 cells assessed as inhibition of parasite replication incubated for 48 hrs by DAPI staining based microscopic analysis. It counts as functional, organism-based. To be noted: CA-I/72, C2C12, 48 h.
As to `O=C(Nc1ccccc1)c1ccc(Nc2nc(NCCN3CCOCC3)c3ccccc3n2)cc1`, the EC50 is 0.8 µM.
Same read-out and setting: as for `Cn1cnc2c(NCc3ccccc3)nc(Nc3ccccc3)nc21`, the figure is 2.2 µM.
With `O=C(Nc1ccccc1)c1ccc(Nc2nc(NCc3ccccc3)c3ccccc3n2)cc1`, the EC50 came to 1.8 µM.
Same read-out and setting: as for `Fc1cccc(Nc2nc(Nc3ccccc3)nc3ccccc23)c1`, the figure is 0.07 µM; as for `c1ccc(CNc2nc(Nc3ccccn3)nc3ccccc23)cc1`, 2.7 µM; as for `OCCCNc1nc(NCCN2CCOCC2)c2ccccc2n1`, 35 µM.
On the same count and under the same terms, as for `Cn1cnc2c(NCc3ccccc3)nc(Nc3ccc(Cl)cc3)nc21`, the figure is 12 µM; as for `O=C(Cn1ccnc1[N+](=O)[O-])NCc1ccccc1` [BENZNIDAZOLE], 5.4 µM.
`c1ccc(CNc2ccnc(Nc3ccccc3)n2)cc1`: the EC50 worked out at 7 µM.
Turning to `Clc1ccc(Nc2nc(NCc3ccccc3)c3ccccc3n2)cc1`, the EC50 is 0.5 µM.

Test system in a further data set: not listed separately
The data set is described as follows: Selectivity index, ratio of CC50 for cytotoxicity against mouse C2C12 cells to EC50 for trypanocidal activity against Trypanosoma cruzi […] infected in mouse C2C12 cells. It counts as toxicity, cell-based. The following applies: read-out: Selectivity Index.
In the case of `O=C(Nc1ccccc1)c1ccc(Nc2nc(NCCN3CCOCC3)c3ccccc3n2)cc1`, the selectivity ratio is more than 12.
With `Cn1cnc2c(NCc3ccccc3)nc(Nc3ccccc3)nc21`, the selectivity ratio is more than 5.
Take `O=C(Nc1ccccc1)c1ccc(Nc2nc(NCc3ccccc3)c3ccccc3n2)cc1`: the selectivity ratio was more than 6.
`Fc1cccc(Nc2nc(Nc3ccccc3)nc3ccccc23)c1`: the selectivity ratio is more than 150.
Consider `c1ccc(CNc2nc(Nc3ccccn3)nc3ccccc23)cc1`, for which the selectivity ratio was more than 4.
Take `OCCCNc1nc(NCCN2CCOCC2)c2ccccc2n1`: the selectivity ratio was more than 0.3.
As for `Cn1cnc2c(NCc3ccccc3)nc(Nc3ccc(Cl)cc3)nc21`, the selectivity ratio was more than 1.
Regarding `O=C(Cn1ccnc1[N+](=O)[O-])NCc1ccccc1` [BENZNIDAZOLE], the selectivity ratio is more than 9.
In the case of `c1ccc(CNc2ccnc(Nc3ccccc3)n2)cc1`, the selectivity ratio was more than 1.
`Clc1ccc(Nc2nc(NCc3ccccc3)c3ccccc3n2)cc1`: the selectivity ratio came out at 21.

Another data set deals with Cruzipain (Trypanosoma cruzi) (UniProt P25779). The data set is described as follows: Inhibition of recombinant Trypanosoma cruzi cruzain using Z-FR-AMC as substrate and compound-enzyme complex preincubated for 5 mins in presence of 0.1% Triton-X100 by fluorometry relative to control.
Conditions: not given
With `O=C(Nc1ccccc1)c1ccc(Nc2nc(NCc3ccccc3)c3ccccc3n2)cc1`, the inhibition was 4%.
As to `Clc1ccc(Nc2nc(NCc3ccccc3)c3ccccc3n2)cc1`, the inhibition was determined as 1%.

Another data set addresses Rhodesain (Trypanosoma brucei rhodesiense) (UniProt Q95PM0). The data set is described as follows: Inhibition of recombinant Trypanosoma brucei rhodesiense MVAT4 rhodesain expressed in Pichia pastoris at 100 uM using Z-FR-AMC as substrate by fluorometry relative to control.
Conditions: not given
With `O=C(Nc1ccccc1)c1ccc(Nc2nc(NCCN3CCOCC3)c3ccccc3n2)cc1`, the inhibition came to 29%.
Turning to `Cn1cnc2c(NCc3ccccc3)nc(Nc3ccccc3)nc21`, the inhibition was 11%.
In the case of `Fc1cccc(Nc2nc(Nc3ccccc3)nc3ccccc23)c1`, the inhibition came out at 17%.
Turning to `c1ccc(CNc2nc(Nc3ccccn3)nc3ccccc23)cc1`, the inhibition is 10%.
As to `OCCCNc1nc(NCCN2CCOCC2)c2ccccc2n1`, the inhibition came out at 22%.
Same read-out and setting: as for `Cn1cnc2c(NCc3ccccc3)nc(Nc3ccc(Cl)cc3)nc21`, the figure is 5%; as for `c1ccc(CNc2ccnc(Nc3ccccc3)n2)cc1`, 6%.

A further data set addresses Cruzipain (Trypanosoma cruzi) (UniProt P25779). The data set is described as follows: Inhibition of recombinant Trypanosoma cruzi cruzain at 20 uM using Z-FR-AMC as substrate by fluorometry relative to control.
Conditions: not given
Consider `Clc1ccc(Nc2nc(NCc3ccccc3)c3ccccc3n2)cc1`, for which the inhibition worked out at 78%.

The next data set shares this target. The data set is described as follows: Inhibition of recombinant Trypanosoma cruzi cruzain using Z-FR-AMC as substrate when compound was preincubated for 5 mins in presence of BSA and 0.001% Triton-X100 followed by further incubation for 5 mins in presence of enzyme relative to control. The following applies: time 10.0 min.
Consider `O=C(Nc1ccccc1)c1ccc(Nc2nc(NCc3ccccc3)c3ccccc3n2)cc1`, for which the inhibition came to 8%.
Turning to `Clc1ccc(Nc2nc(NCc3ccccc3)c3ccccc3n2)cc1`, the inhibition was determined as 35%.

The target is the same in another data set. The data set is described as follows: Inhibition of recombinant Trypanosoma cruzi cruzain using Z-FR-AMC as substrate and compound-enzyme complex preincubated for 5 mins in presence of 0.001% Triton-X100 by fluorometry relative to control.
Conditions: not given
`O=C(Nc1ccccc1)c1ccc(Nc2nc(NCc3ccccc3)c3ccccc3n2)cc1`: the inhibition came out at 100%.
The same measure, in the same setting: as for `Clc1ccc(Nc2nc(NCc3ccccc3)c3ccccc3n2)cc1`, the figure is 42%.

Test system in the next data set: not listed separately
The experiment in a line: Cytotoxicity against mouse C2C12 cells. It counts as cell-based.
Conditions: not given
Usually CC50 stands for the concentration giving 50% cytotoxicity. With `O=C(Nc1ccccc1)c1ccc(Nc2nc(NCCN3CCOCC3)c3ccccc3n2)cc1`, the CC50 was more than 10 µM.
`Cn1cnc2c(NCc3ccccc3)nc(Nc3ccccc3)nc21` yielded a CC50 of more than 10 µM.
Still for that read-out and setting: as for `O=C(Nc1ccccc1)c1ccc(Nc2nc(NCc3ccccc3)c3ccccc3n2)cc1`, the figure is more than 10 µM.
Same read-out and setting: as for `Fc1cccc(Nc2nc(Nc3ccccc3)nc3ccccc23)c1`, the figure is more than 10 µM; as for `c1ccc(CNc2nc(Nc3ccccn3)nc3ccccc23)cc1`, more than 10 µM; as for `OCCCNc1nc(NCCN2CCOCC2)c2ccccc2n1`, more than 10 µM.
`Cn1cnc2c(NCc3ccccc3)nc(Nc3ccc(Cl)cc3)nc21` displayed a CC50 of more than 10 µM.
`O=C(Cn1ccnc1[N+](=O)[O-])NCc1ccccc1` [BENZNIDAZOLE] came in with a CC50 of more than 50 µM.
In turn, `c1ccc(CNc2ccnc(Nc3ccccc3)n2)cc1` had a CC50 of more than 10 µM.
For the compound `Clc1ccc(Nc2nc(NCc3ccccc3)c3ccccc3n2)cc1`, it took 10 µM to reach half-maximal cytotoxicity (CC50).

A further data set concerns the target Cruzipain (Trypanosoma cruzi) (UniProt P25779). The data set is described as follows: Inhibition of recombinant Trypanosoma cruzi cruzain at 100 uM using Z-FR-AMC as substrate by fluorometry relative to control.
Conditions: not given
On to `O=C(Nc1ccccc1)c1ccc(Nc2nc(NCCN3CCOCC3)c3ccccc3n2)cc1`, for which the inhibition turned out to be 84%.
As for `Fc1cccc(Nc2nc(Nc3ccccc3)nc3ccccc23)c1`, the inhibition amounted to 46%.
Still for that read-out and setting: the figure for `c1ccc(CNc2nc(Nc3ccccn3)nc3ccccc23)cc1` is 100%; for `OCCCNc1nc(NCCN2CCOCC2)c2ccccc2n1` it is 67%.
